Test results taken from patent publication US9282743B2, “Chemical compounds” (Syngenta Participations AG, priority 2011, dated 2016).

How the values were obtained:
Type in all cases: in vivo
[1] = system: Alopecurus myosuroides (ALOMY); experiment: Example B6: post application on weeds, ALOMY; conditions: 312 h, after 13 days, 100 = total damage, 0 = no damage, read-out: ALOMY damage to plant
Protocol: (§1) Lolium perenne (LOLPE), Alopecurus myosuroides (ALOMY), Echinochloa crus-galli (ECHCG) and Avena fatua (AVEFA). Activity Against Weeds Seeds of a variety of test species were sown in standard soil in pots. After cultivation for 8 days under controlled conditions in a glasshouse (at 24/16° C., day/night; 14 hours light; 65% humidity), the plants were sprayed with an aqueous spray solution derived from the formulation of the technical active ingredient in acetone/water (50:50) solution containing 0.5% Tween 20 (polyoxyethelyene sorbitan monolaurate, CAS RN 9005-64-5). The test plants were then grown in a glasshouse under controlled conditions in a glasshouse (at 24/16° C., day/night; 14 hours light; 65% humidity) and watered twice daily. After 13 days, the test was evaluated (100=total damage to plant; 0=no damage to plant).

Avena fatua (AVEFA) [2] = experiment: Example B6: post application on weeds, AVEFA; conditions: 312 h, after 13 days, 100 = total damage, 0 = no damage, read-out: AVEFA damage to plant
Protocol: as §1

Winter wheat (TRZAW) = experiment: Example B8: post application on wheat, with and without safener cloquintocet-mexyl; conditions: after 13 days, 100 = total damage, 0 = no damage
Protocol: Application with Safener (Cloquintocet-Mexyl) Winter wheat seeds with a seed treatment of cloquintocet-mexyl applied at a rate of 0.5 g/kg seeds were sown in standard soil in pots. After cultivation for 8 days under controlled conditions in a glasshouse (at 24/16° C., day/night; 14 hours light; 65% humidity), the plants were sprayed with an aqueous spray solution derived from the formulation of the technical active ingredient in acetone/water (50:50) solution containing 0.5% Tween 20 (polyoxyethelyene sorbitan monolaurate, CAS RN 9005-64-5). The test plants were then grown in a glasshouse under controlled conditions in a glasshouse (at 24/16° C., day/night; 14 hours light; 65% humidity) and watered twice daily. After 13 days, the test was evaluated (100=total damage to plant; 0=no damage to plant).

Lolium perenne (LOLPE) [3] = experiment: Example B7: pre application on weeds, LOLPE; conditions: 312 h, pre-emergence spray one day after sowing, evaluated after 13 days, read-out: Pre application on weeds, LOLPE (100=total damage to plant; 0=no damage to plant)
Protocol: as §1, with “one day” for “8 days”

Avena fatua (AVEFA) [4] = experiment: Example B7: pre application on weeds, AVEFA; conditions: 312 h, pre-emergence spray one day after sowing, evaluated after 13 days, read-out: Pre application on weeds, AVEFA (100=total damage to plant; 0=no damage to plant)
Protocol: as §1, with “one day” for “8 days”

[5] = system: Echinochloa crus-galli (ECHCG); experiment: Example B7: pre application on weeds, ECHCG; conditions: 312 h, pre-emergence spray one day after sowing, evaluated after 13 days, read-out: Pre application on weeds, ECHCG (100=total damage to plant; 0=no damage to plant)
Protocol: as §1, with “one day” for “8 days”

Lolium perenne (LOLPE) [6] = experiment: Example B6: post application on weeds, LOLPE; conditions: 312 h, after 13 days, 100 = total damage, 0 = no damage, read-out: LOLPE damage to plant
Protocol: as §1

[7] = system: Alopecurus myosuroides (ALOMY); experiment: Example B7: pre application on weeds, ALOMY; conditions: 312 h, pre-emergence spray one day after sowing, evaluated after 13 days, read-out: Pre application on weeds, ALOMY (100=total damage to plant; 0=no damage to plant)
Protocol: as §1, with “one day” for “8 days”

[8] = system: Echinochloa crus-galli (ECHCG); experiment: Example B6: post application on weeds, ECHCG; conditions: 312 h, after 13 days, 100 = total damage, 0 = no damage, read-out: ECHCG damage to plant
Protocol: as §1

[9] = 250 g/ha + 0.5 g/kg seeds cloquintocet-mexyl
[10] = 62.5 g/ha + 0.5 g/kg seeds cloquintocet-mexyl

Compound | pest or weed control at 250 g/ha [1] [%] | pest or weed control at 250 g/ha (Avena fatua (AVEFA) [2]) [%] | TRZAW damage to plant (Winter wheat (TRZAW); [9]) | TRZAW damage to plant (Winter wheat (TRZAW); 250 g/ha, without safener) | pest or weed control at 250 g/ha (Lolium perenne (LOLPE) [3]) [%] | pest or weed control at 250 g/ha (Avena fatua (AVEFA) [4]) [%] | pest or weed control at 250 g/ha [5] [%] | pest or weed control at 250 g/ha (Lolium perenne (LOLPE) [6]) [%] | pest or weed control at 250 g/ha [7] [%] | pest or weed control at 250 g/ha [8] [%] | TRZAW damage to plant (Winter wheat (TRZAW); [10]) | TRZAW damage to plant (Winter wheat (TRZAW); 62.5 g/ha, without safener)
CON1CCn2c(OC(=O)C(C)(C)C)c(-c3c(C)cc(C)cc3C)c(=O)n2CC1 [Compound P1.1, 2,2-Dimethyl-propionic acid 3-methoxy-9-oxo-8-(2,4,6-trimethyl-phenyl)-2,3,4,5-tetrahydro-1H,9H-pyrazolo[1,2-a][1,2,5]triazepin-7-yl ester] | 100 | 100 | 50 | 70 | 100 | 50 | 20 | 100 | 90 | 100 |  | 
CCOC(=O)Oc1c(-c2c(C)cc(C)cc2C)c(=O)n2n1CCN(OC)CC2 [Compound P1.2, Carbonic acid ethyl ester 3-methoxy-9-oxo-8-(2,4,6-trimethyl-phenyl)-2,3,4,5-tetrahydro-1H,9H-pyrazolo[1,2-a][1,2,5]triazepin-7-yl ester] | 50 | 100 | 30 | 80 | 90 | 80 | 40 | 100 | 80 | 100 |  | 
CCOC(=O)Oc1c(-c2c(C)cc(Cl)cc2C)c(=O)n2n1CCN(OC)CC2 [Compound P1.3] | 80 | 80 | 20 | 70 | 10 | 0 | 20 | 60 | 0 | 60 |  | 
C#Cc1cc(C)cc(C)c1-c1c(OC(=O)OCC)n2n(c1=O)CCN(OC)CC2 [Compound P1.5] | 100 | 100 |  |  | 30 | 90 | 20 | 90 | 40 | 100 | 20 | 80
CCOC(=O)Oc1c(-c2cc(-c3ccc(Cl)cc3)ccc2C)c(=O)n2n1CCN(OC)CC2 [Compound P1.7] | 70 | 100 |  |  | 0 | 0 | 0 | 70 | 0 | 80 | 40 | 80
C#Cc1cc(C)c(-c2c(OC(=O)OCC)n3n(c2=O)CCN(OC)CC3)c(C)c1 [Compound P1.8] | 80 | 80 | 20 | 60 | 0 | 20 | 20 | 40 | 0 | 70 |  | 
CCOC(=O)Oc1c(-c2c(C)cc(C)cc2OC)c(=O)n2n1CCN(OC)CC2 [Compound P1.9] | 90 | 90 | 60 | 80 | 80 | 80 | 70 | 90 | 70 | 100 |  | 
CCOC(=O)Oc1c(-c2c(C)cc(Br)cc2C)c(=O)n2n1CCN(OC)CC2 [Compound P1.10] | 80 | 70 | 30 | 60 | 70 | 40 | 60 | 70 | 70 | 60 |  | 
CCOC(=O)Oc1c(-c2c(Cl)cc(C)cc2Br)c(=O)n2n1CCN(OC)CC2 [Compound P1.11] | 80 | 70 | 10 | 60 | 90 | 70 | 80 | 80 | 100 | 60 |  | 
CCOC(=O)Oc1c(-c2c(C)cc(Cl)cc2Br)c(=O)n2n1CCN(OC)CC2 [Compound P1.12] | 80 | 70 | 30 | 60 | 100 | 10 | 0 | 70 | 90 | 50 |  | 
CON1CCN2C(=O)C(c3c(C)cc(C)cc3C)C(=O)N2CC1 [Compound P2.1, 3-Methoxy-8-(2,4,6-trimethyl-phenyl)-tetrahydro-pyrazolo[1,2-a][1,2,5]triazepine-7,9-dione] | 90 | 90 | 30 | 60 | 100 | 90 | 100 | 90 | 100 | 100 |  | 
CON1CCN2C(=O)C(c3c(C)cc(Cl)cc3C)C(=O)N2CC1 [Compound P2.2, 8-(4-Chloro-2,6-dimethyl-phenyl)-3-methoxy-tetrahydro-pyrazolo[1,2-a][1,2,5]triazepine-7,9-dione] | 70 | 50 | 20 | 30 | 80 | 50 | 70 | 70 | 80 | 60 |  | 
C#Cc1cc(C)cc(C)c1C1C(=O)N2CCN(OC)CCN2C1=O [Compound P2.5] | 90 | 100 | 10 | 80 | 100 | 100 | 90 | 100 | 100 | 100 |  | 
